The record followed here is patent US20260151431A1, “ACTIVATED STEM CELLS AND SYSTEMIC TREATMENT METHODS FOR INFECTED WOUNDS” (Colorado State University Research Foundation, priority 2015, published 2026).

Experiment [1] relates to highly antibiotic-resistant strains of bacteria. As to the kind of experiment: In vitro killing of highly antibiotic-resistant bacteria by activated MSC and antibiotic. It counts as cell-based. The settings on record: triplicate cultures, assessed 4 h later; antibiotic at very high doses. The procedure: Using a similar experimental design as described in Example 9, supra, highly antibiotic-resistant strains of bacteria were incubated with activated MSC alone, antibiotics alone (cefazolin (cefa)), or antibiotics+activated MSC in triplicate cultures and bacterial killing assessed 4 h later.

A further experiment concerns inflammatory monocytes. It counts as in vivo, mice. The settings on record: chronic S. aureus infected wounds; i.v. MSC; compared to untreated control animals. The procedure: Studies were done to investigate the impact of activated MSC on host immune responses, including monocyte, macrophage, and neutrophil responses. The numbers of monocytes migrating into wound tissues was determined by use of reporter mice whose inflammatory monocytes all expressed GFP. Wounds from S. aureus infected mice were immunostained for detection of inflammatory monocytes.

Take `Cc1nnc(SCC2=C(C(=O)O)N3C(=O)[C@@H](NC(=O)Cn4cnnn4)[C@H]3SC2)s1` [cefazolin]: the bacterial killing result in experiment [1] is given as “little bacterial killing”.

Consider “amoxicillin-clavulanic acid [antibiotics]”, for which the “number of monocytes infiltrating the wounds” value with inflammatory monocytes was “relatively sparse population of monocytes”.
